These are literature values, as cited in US20090264342A1, “COMPOSITIONS AND METHODS FOR ANTIBIOTIC POTENTIATION AND DRUG DISCOVERY” (priority 2006, published 2009).

The test system of this data set is Streptomyces pneumoniae. The following applies: more active than ciprofloxacin against this pathogen; cited from earlier work.

`CO/N=C1\CN(c2nc3c(cc2F)c(=O)c(C(=O)O)cn3C2CC2)CC1CN` (stereo not shown) [Gemifloxacin]: the “activity relative to ciprofloxacin” value is recorded as 30 fold.
